# Measured values reported in patent US12516055B2, “Protein kinase inhibitors and uses thereof for the treatment of diseases and conditions” (University of Houston System, priority 2019, dated 2026).
# Read-outs that look alike come from different tables or passages of the source. Marks after values point to notes of the source that are not given here.
# Tests used:
# Hela-RIPK3 cells [1] = details: Mandal et al. 2014, one cell under both toxicity columns; cited from earlier work
# [2] = test system: TNF/IDN-treated human Hela cells expressing RIPK3; assay: Protection from necroptosis in TNF/IDN-treated Hela-RIPK3 cells (CellTiter-Glo); type: cell-based
# Protocol: (§2) IC50/LD50 values were determined for inhibition of recombinant RIPK3, inhibition of necroptosis in LPS/IDN-treated murine RAW264.7 macrophages and TNF/IDN-treated human Hela cells expressing RIPK3, RIPK3 binding by the inhibitors in live cells (NanoBRET assay), and induction of RIPK3-dependent apoptosis (i.e., on-target toxicity). Assays were performed using ADPGlo (kinase assay), CellTiter-Glo (viability), and NanoBRET (target engagement) assays.
# (§3) After incubation with drugs, 15 μL of CellTiter-Glo reagent is added to the wells and incubated for 10 min Luminescence signals are determined using appropriate luminescence plate-reader (typical integration time 0.3 sec).
# [3] = test system: RIPK3 and MLKL phosphorylation; assay: RIPK3 and MLKL phosphorylation in RAW264.7 macrophages (Western blot, FIG. 31); type: cell-based; details: LPS 10 ng/ml + IDN6556 20 μM
# Protocol: Necroptosis was induced by the combination of LPS (10 ng/ml) and pan-caspase inhibitor IDN6556 (20 μM). Note that LPS is a TLR4 ligand that, like TNF, can activate RIPK3 (and necroptosis) in the presence of a caspase inhibitor. The asterisk indicates a non-specific band sometimes see in pMLKL immunoblots. Samples are subjected to SDS-PAGE gele electrophoresis and Western blotting using RIPK3, phospho-Thr231/Ser232-RIPK3, MLKL and phospho-Ser345-MLKL antibodies (Abcam).
# [4] = test system: LPS/IDN-treated murine RAW264.7 macrophages; assay: Protection from necroptosis in LPS/IDN-treated RAW264.7 macrophages (CellTiter-Glo); type: cell-based
# Protocol: as §2, §3
# NOD2 cellular signaling = assay: NOD2 signaling assay in HEK-Blue cells (NFkB-SEAP reporter); type: cell-based; details: Homo sapiens, L18-MDP stimulated, read-out: EC50 HEK Blue (μM) RIPK2
# Protocol: HEK-Blue cells expressing human NOD2 and NFkB-SAEP reporter (Invivogen) are seeded into 96 well clear plates at 7.5×10^3 cells per well in 100 μL of DMEM media supplemented with 10% FBS and 1% antibiotic-antimycotic mix. Cells are allowed to attach for 48 h in 5% CO2 tissue culture incubator at 37° C. On the morning of the experiment, media in the wells is replaced with 100 μL of HEK-Blue detection media (Invivogen). Cells are treated with the inhibitors, diluted in DMSO (0.5 μL per well) for […] in 5% CO2 tissue culture incubator at 37° C. After that, cells are stimulated by the addition of 1 ng/well L18-MDP (Invivogen). Cells are incubated in 5% CO2 tissue culture incubator at 37° C. for 8 h and absorbance, corresponding to the SEAP in the media, is determined in Wallac3V plate reader (Perkin Elmer). Inhibition, %=(1−((sample signal-unstimulated and DMSO treated cells)/(L18−MDP stimulated and DMSO treated cells−unstimulated and DMSO treated cells)))*100.
# (§1) Prepared compounds were evaluated for their ability to inhibit RIPK2 and ALK2 enzyme activities and NOD2 cellular signaling using the methods described above.
# human ALK2 = target: T1, human ALK2 (Homo sapiens, UniProt Q04771); assay: ALK2 enzyme assay (33P-casein); type: biochemical; details: 10 μM ATP
# T1 sequence (Q04771 21-509): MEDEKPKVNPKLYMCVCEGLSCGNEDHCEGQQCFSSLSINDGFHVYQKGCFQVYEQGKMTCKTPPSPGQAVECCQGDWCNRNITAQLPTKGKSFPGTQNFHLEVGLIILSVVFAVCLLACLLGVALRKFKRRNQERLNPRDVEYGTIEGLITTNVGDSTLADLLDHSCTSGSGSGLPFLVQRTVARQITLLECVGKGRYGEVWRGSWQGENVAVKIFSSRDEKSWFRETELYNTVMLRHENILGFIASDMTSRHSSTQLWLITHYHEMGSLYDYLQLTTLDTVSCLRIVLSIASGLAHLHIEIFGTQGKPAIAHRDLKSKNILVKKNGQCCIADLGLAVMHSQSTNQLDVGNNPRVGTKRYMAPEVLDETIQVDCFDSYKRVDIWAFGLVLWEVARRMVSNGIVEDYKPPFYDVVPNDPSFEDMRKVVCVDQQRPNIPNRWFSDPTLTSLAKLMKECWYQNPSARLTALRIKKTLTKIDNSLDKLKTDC
# Protocol: Enzyme inhibitory activity was evaluated in a standard kinase enzyme assay by incubating human ALK2 with the protein substrate casein (1 mg/mL) and γ-^33ATP (10 μM) in the presence of various concentrations of test compounds (10 nM 100 μM). After 30 min the amount of ^33P-casein was determined.
# as §1
# RIPK3 [5] = target: T2, RIPK3 (Homo sapiens, UniProt Q9Y572); assay: Inhibition of recombinant RIPK3 (ADP-Glo kinase assay); type: biochemical; details: recombinant RIPK3, ADPGlo; read-out: Inhibition of RIPK3, RIPK3 protein IC50
# T2 sequence (Q9Y572 whole entry, species assumed): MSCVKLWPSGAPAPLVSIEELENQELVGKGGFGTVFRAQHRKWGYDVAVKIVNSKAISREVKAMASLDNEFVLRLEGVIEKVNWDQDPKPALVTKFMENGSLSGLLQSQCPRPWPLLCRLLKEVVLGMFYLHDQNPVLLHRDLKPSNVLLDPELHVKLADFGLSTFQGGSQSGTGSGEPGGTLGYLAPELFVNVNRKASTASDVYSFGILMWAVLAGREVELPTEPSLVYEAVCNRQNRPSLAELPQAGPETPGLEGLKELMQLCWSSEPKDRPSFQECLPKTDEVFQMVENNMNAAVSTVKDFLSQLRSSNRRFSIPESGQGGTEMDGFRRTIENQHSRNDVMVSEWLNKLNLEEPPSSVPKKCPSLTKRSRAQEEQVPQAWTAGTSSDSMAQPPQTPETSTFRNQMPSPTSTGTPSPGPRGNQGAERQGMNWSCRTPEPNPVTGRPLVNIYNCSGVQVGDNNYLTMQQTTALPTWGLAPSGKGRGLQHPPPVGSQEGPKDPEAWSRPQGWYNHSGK
# Protocol: as §2
# (§4) For ADP-Glo assays, recombinant RIPK3 protein (20 ng per reaction) is diluted in the reaction buffer consisting of 50 mM HEPES, pH 7.5, 50 mM NaCl, 30 mM MgCl2, 1 mM DTT, 0.05% bovine serum albumin (BSA), 0.02% CHAPS. Diluted protein is added to low volume white 384 well plates (2 μL/well). […] Reactions are initiated by the addition of 2 μL of 100 μM ATP in the reaction buffer. Plates are sealed with plastic coverslips and incubated at room temperature for 4 h. Reactions are stopped by the addition of 5 μL of ADP-Glo reagent (Promega) and ADP generation reaction is performed for 40 mM at room temperature Luminescence signal is generated by the addition of 10 μL of Kinase detection reagent (Promega) for 30 mM at room temperature Luminescence signals are determined using appropriate luminescence plate-reader (typical integration time 0.3-1 sec). To calculate percent inhibition, average background signal is subtracted from test well and maximal signal wells. Inhibition, %=(1−(test signal/maximal signal))*100. The percent inhibition at a specified concentration is determined or IC50 values are calculated based on a dose range of inhibitor concentrations using non-linear regression in GraphPad Prism software. […] After incubation with drugs, 15 μL of CellTiter-Glo reagent is added to the wells and incubated for 10 min Luminescence signals are determined using appropriate luminescence plate-reader (typical integration time 0.3 sec). To calculate percent viability, Viability, %=(1−(test signal/maximal viability in the untreated wells))*100.
# RIPK3 [6] = target: T2, RIPK3; assay: RIPK3 binding in live HEK cells (NanoBRET target engagement); design: expressed in transfected cells; host or cells: HEK cells
# Protocol: as §2
# Hela-RIPK3 cells [7] = test system: Hela-RIPK3 cells
# Protocol: as §2
# For ADP-Glo assays, recombinant RIPK3 protein (20 ng per reaction) is diluted in the reaction buffer consisting of 50 mM HEPES, pH 7.5, 50 mM NaCl, 30 mM MgCl2, 1 mM DTT, 0.05% bovine serum albumin (BSA), 0.02% CHAPS. Diluted protein is added to low volume white 384 well plates (2 μL/well). […] Reactions are stopped by the addition of 5 μL of ADP-Glo reagent (Promega) and ADP generation reaction is performed for 40 mM at room temperature Luminescence signal is generated by the addition of 10 μL of Kinase detection reagent (Promega) for 30 mM at room temperature Luminescence signals are determined using appropriate luminescence plate-reader (typical integration time 0.3-1 sec). […] The percent inhibition at a specified concentration is determined or IC50 values are calculated based on a dose range of inhibitor concentrations using non-linear regression in GraphPad Prism software. […]
# [8] = Mus musculus, LPS/IDN-treated RAW264.7 cells, read-out: Protection from necroptosis, RAW264.7 cells IC50
# Protocol for RAW264.7 cells: as §2, §4
Structure (SMILES),"Toxicity, RAW264.7 cells LD50 (RAW264.7 cells) [µM]",IC50 (RIPK3 [5]) [µM],IC50 (RIPK3 [6]) [µM],other results
"CC(C)S(=O)(=O)c1ccc2nccc(Nc3ccc4scnc4c3)c2c1 [GSK′872, reference compound]",–,–,–,"Toxicity LD50 (published value) (Hela-RIPK3 cells [1]): ~10* μM; IC50 [2]: 3.21 µM; Block of RIPK3 and MLKL phosphorylation [3]: block RIPK3 and MLKL phosphorylation; IC50 ([4]; LPS/IDN-treated RAW264.7 cells, read-out: Protection from necroptosis, RAW264.7 cells IC50): 1.29 µM"
"Cn1c(=O)c(-c2ccccc2Cl)cc2cnc(Nc3cccc(N4CCS(=O)(=O)CC4)c3)cc21 [UH15-28, 3-(2-chlorophenyl)-7-((3-(1,1-dioxidothiomorpholino)phenyl)amino)-1-methyl-1,6-naphthyridin-2(1H)-one]",–,–,–,EC50 (NOD2 cellular signaling): 0.07 µM
"CN1CCN(c2cccc(Nc3cc4c(cn3)cc(-c3ccccc3Cl)c(=O)n4C)c2)CC1 [UH15-37, 3-(2-chlorophenyl)-1-methyl-7-((3-(4-methylpiperazin-1-yl)phenyl)amino)-1,6-naphthyridin-2(1H)-one]",–,–,–,IC50 (human ALK2): 32300 nM; EC50 (NOD2 cellular signaling): 0.05 µM
CCN(CC)CCOc1ccc(Nc2ncc3cc(-c4ccccc4)c(=O)n(CC)c3n2)cc1 [compound 4],5.2,0.3,–,"IC50 ([4]; Mus musculus, RAW264.7, read-out: Protection from necroptosis, RAW264.7 cells IC50): 0.18 µM"
CCN(CC)CCOc1ccc(Nc2ncc3cc(-c4c(Cl)cccc4Cl)c(=O)n(CCOC)c3n2)cc1 [compound 6],–,0.02,0.02,–
CCN(CC)CCOc1ccc(Nc2ncc3cc(-c4c(Cl)cccc4Cl)c(=O)n(CC(C)C)c3n2)cc1 [compound 10],–,0.08,–,–
Cc1ccc(-c2cc3cnc(Nc4cccc(S(C)(=O)=O)c4)nc3n(C)c2=O)c(Cl)c1 [compound 20],–,0.28,0.95,–
CN1CCN(c2cccc(Nc3cc4c(cn3)cc(-c3ccccc3Cl)c(=O)n4C)c2)CC1 [compound 37],>10,0.05,0.08,"IC50 ([2]; Homo sapiens): 0.06 µM; Toxicity, Hela-RIPK3 cells LD50 (Hela-RIPK3 cells [7]): >10 µM; IC50 [4, 8]: 0.25 µM"
CN1CCN(c2cccc(Nc3cc4c(cn3)cc(-c3cccc(O)c3)c(=O)n4C)c2)CC1 [compound 38],>10,0.01,0.02,"IC50 [4, 8]: 0.02 µM"
